Experiments:
sugar beet = assay: Test B pre/postemergence sugar beet; format: in vivo, Beta vulgaris
Summary of the method: (§1)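 Herbicidal effect was estimated by eye on a ten-point control scale after plants spent twelve to sixteen days in a greenhouse following soil or foliar treatment. Foliar sprays targeted plants at one to four leaves; all doses were formulated in a non-phytotoxic solvent with surfactant.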

rape = assay: Test B pre/postemergence rape; format: in vivo, Brassica napus
Summary of the method: as §1

crabgrass = assay: Test B pre/postemergence crabgrass; format: in vivo, Digitaria sanguinalis
Summary of the method: as §1

blackgrass = assay: Test B pre/postemergence blackgrass; format: in vivo, Alopecurus myosuroides
Summary of the method: as §1

duck salad = assay: Test B flood test duck salad; format: in vivo, Heteranthera limosa
Summary of the method: (§2)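 Plants were grown to the 2-leaf stage before treatment with test chemical, then held in a greenhouse for twelve to sixteen days. Injury was visually rated against untreated controls on a 0–10 scale, where 0 is no effect and 10 is complete control.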

morningglory = assay: Test B pre/postemergence morningglory; format: in vivo, Ipomoea hederacea
Summary of the method: as §1

giant foxtail = assay: Test B pre/postemergence giant foxtail; format: in vivo, Setaria faberii
Summary of the method: as §1

cocklebur = assay: Test B pre/postemergence cocklebur; format: in vivo, Xanthium strumarium
Summary of the method: as §1

rice = assay: Test B flood test rice; format: in vivo, Oryza sativa
Summary of the method: as §2

smallflower flatsedge = assay: Test B flood test smallflower flatsedge; format: in vivo, Cyperus difformis
Summary of the method: as §2

velvetleaf = assay: Test B pre/postemergence velvetleaf; format: in vivo, Abutilon theophrasti
Summary of the method: as §1

surinam grass = assay: Test B pre/postemergence surinam grass; format: in vivo, Brachiaria decumbens
Summary of the method: as §1

corn = assay: Test B pre/postemergence corn; format: in vivo, Zea mays
Summary of the method: as §1

purple nutsedge = assay: Test B pre/postemergence purple nutsedge; format: in vivo, Cyperus rotundus
Summary of the method: as §1

wheat = assay: Test B pre/postemergence wheat; format: in vivo, Triticum aestivum
Summary of the method: as §1

pigweed = assay: Test B pre/postemergence pigweed; format: in vivo, Amaranthus retroflexus
Summary of the method: as §1

[1] = Postemergence, Rate 62 g/ha, scale 0 to 10, 0 is no effect, 10 is complete control
[2] = Postemergence, Rate 250 g/ha, scale 0 to 10, 0 no effect, 10 complete control
[3] = Preemergence, Rate 62 g/ha, scale 0 to 10 (0 no effect, 10 complete control)
[4] = Preemergence, Rate 125 g/ha, scale 0 to 10 (0 no effect, 10 complete control)
[5] = Preemergence, Rate 250 g/ha, scale of 0 to 10 where 0 is no effect and 10 is complete control
[6] = Preemergence, Rate 500 g/ha, scale 0 (no effect) to 10 (complete control)
[7] = Rate 125 g/ha, Postemergence, scale 0 to 10, 0 no effect, 10 complete control
[8] = Rate 500 g/ha, Postemergence, scale 0 to 10, 0 no effect, 10 complete control
[9] = Rate 125 g/ha, Postemergence section (flood test species), scale 0 to 10, 0 no effect, 10 complete control
[10] = Rate 500 g/ha, listed under Postemergence (flood test species), scale 0 to 10, 0 no effect, 10 complete control
[11] = flood test, listed under Postemergence, Rate 250 g/ha, scale 0 to 10, 0 no effect, 10 complete control

Cc1ccccc1Cn1c(=O)on(C(=O)N(C)c2ccccc2)c1=O [Compound 85]
0: Sugarbeets plant response rating (sugar beet; [1]) | Sugarbeets plant response rating (sugar beet; [2]) | Sugarbeets plant response rating (sugar beet; [3]) | Plant response rating, Sugarbeets (sugar beet; [4]) | Plant response rating, Sugarbeets (sugar beet; [5]) | Sugarbeets plant response rating (sugar beet; [6]) | Sugarbeets plant response rating (sugar beet; [7]) | Sugarbeets plant response rating (sugar beet; [8]) | Rape plant response rating (rape; [1]) | Rape plant response rating (rape; [2]) | Rape plant response rating (rape; [3]) | Plant response rating, Rape (rape; [4]) | Plant response rating, Rape (rape; [5]) | Rape plant response rating (rape; [6]) | Rape plant response rating (rape; [7]) | Rape plant response rating (rape; [8]) | Crabgrass plant response rating (crabgrass; [1]) | Crabgrass plant response rating (crabgrass; [2]) | Crabgrass plant response rating (crabgrass; [3]) | Plant response rating, Crabgrass (crabgrass; [4]) | Plant response rating, Crabgrass (crabgrass; [5]) | Crabgrass plant response rating (crabgrass; [6]) | Crabgrass plant response rating (crabgrass; [7]) | Crabgrass plant response rating (crabgrass; [8]) | Blackgrass plant response rating (blackgrass; [1]) | Blackgrass plant response rating (blackgrass; [2]) | Blackgrass plant response rating (blackgrass; [3]) | Plant response rating, Blackgrass (blackgrass; [4]) | Plant response rating, Blackgrass (blackgrass; [5]) | Blackgrass plant response rating (blackgrass; [6]) | Blackgrass plant response rating (blackgrass; [7]) | Blackgrass plant response rating (blackgrass; [8]) | Ducksalad plant response rating (duck salad; [1]) | Ducksalad plant response rating (duck salad; [9]) | Ducksalad plant response rating (duck salad; [10]) | Ducksalad plant response rating (duck salad; [11]) | Morningglory plant response rating (morningglory; [1]) | Morningglory plant response rating (morningglory; [2]) | Morningglory plant response rating (morningglory; [3]) | Plant response rating, Morningglory (morningglory; [4]) | Plant response rating, Morningglory (morningglory; [5]) | Morningglory plant response rating (morningglory; [6]) | Morningglory plant response rating (morningglory; [7]) | Morningglory plant response rating (morningglory; [8]) | Giant foxtail plant response rating (giant foxtail; [1]) | Giant foxtail plant response rating (giant foxtail; [2]) | Giant foxtail plant response rating (giant foxtail; [3]) | Plant response rating, Giant foxtail (giant foxtail; [4]) | Plant response rating, Giant foxtail (giant foxtail; [5]) | Giant foxtail plant response rating (giant foxtail; [6]) | Giant foxtail plant response rating (giant foxtail; [7]) | Giant foxtail plant response rating (giant foxtail; [8]) | Cocklebur plant response rating (cocklebur; [1]) | Cocklebur plant response rating (cocklebur; [2]) | Cocklebur plant response rating (cocklebur; [3]) | Plant response rating, Cocklebur (cocklebur; [4]) | Plant response rating, Cocklebur (cocklebur; [5]) | Cocklebur plant response rating (cocklebur; [6]) | Cocklebur plant response rating (cocklebur; [7]) | Cocklebur plant response rating (cocklebur; [8]) | Rice plant response rating (rice; [1]) | Rice plant response rating (rice; [9]) | Rice plant response rating (rice; [10]) | Rice plant response rating (rice; [11]) | S. Flatsedge plant response rating (smallflower flatsedge; [1]) | S. Flatsedge plant response rating (smallflower flatsedge; [9]) | S. Flatsedge plant response rating (smallflower flatsedge; [10]) | S. Flatsedge plant response rating (smallflower flatsedge; [11]) | Velvetleaf plant response rating (velvetleaf; [1]) | Velvetleaf plant response rating (velvetleaf; [2]) | Velvetleaf plant response rating (velvetleaf; [3]) | Plant response rating, Velvetleaf (velvetleaf; [4]) | Plant response rating, Velvetleaf (velvetleaf; [5]) | Velvetleaf plant response rating (velvetleaf; [6]) | Velvetleaf plant response rating (velvetleaf; [7]) | Velvetleaf plant response rating (velvetleaf; [8]) | B. signalgrass plant response rating (surinam grass; [1]) | B. signalgrass plant response rating (surinam grass; [2]) | B. signalgrass plant response rating (surinam grass; [3]) | Plant response rating, B. signalgrass (surinam grass; [4]) | Plant response rating, B. signalgrass (surinam grass; [5]) | B. signalgrass plant response rating (surinam grass; [6]) | B. signalgrass plant response rating (surinam grass; [7]) | B. signalgrass plant response rating (surinam grass; Rate 500 g/ha, Postemergence, scale of 0 to 10 where 0 is no effect and 10 is complete control) | Corn plant response rating (corn; [1]) | Corn plant response rating (corn; [2]) | Corn plant response rating (corn; [3]) | Plant response rating, Corn (corn; [4]) | Plant response rating, Corn (corn; [5]) | Corn plant response rating (corn; [6]) | Corn plant response rating (corn; [7]) | Corn plant response rating (corn; [8]) | Nutsedge plant response rating (purple nutsedge; [1]) | Nutsedge plant response rating (purple nutsedge; [2]) | Nutsedge plant response rating (purple nutsedge; [3]) | Plant response rating, Nutsedge (purple nutsedge; [4]) | Plant response rating, Nutsedge (purple nutsedge; [5]) | Nutsedge plant response rating (purple nutsedge; [6]) | Nutsedge plant response rating (purple nutsedge; [7]) | Nutsedge plant response rating (purple nutsedge; [8]) | Wheat plant response rating (wheat; [1]) | Wheat plant response rating (wheat; [2]) | Wheat plant response rating (wheat; [3]) | Plant response rating, Wheat (wheat; [4]) | Plant response rating, Wheat (wheat; [5]) | Wheat plant response rating (wheat; [6]) | Wheat plant response rating (wheat; [7]) | Wheat plant response rating (wheat; [8]) | Redroot pigweed plant response rating (pigweed; [1]) | Redroot pigweed plant response rating (pigweed; [2]) | Redroot pigweed plant response rating (pigweed; [3]) | Plant response rating, Redroot pigweed (pigweed; [4]) | Plant response rating, Redroot pigweed (pigweed; [5]) | Redroot pigweed plant response rating (pigweed; [6]) | Redroot pigweed plant response rating (pigweed; [7]) | Redroot pigweed plant response rating (pigweed; [8])

Source: patent publication US6737383B1, “Herbicidal oxadiazolidines” (priority 1999, dated 2004)
